Measured values published in patent US8084621B2, “3-Pyrrolo[b]cyclohexylene-2-dihydroindolinone derivatives and uses thereof” (Jiangsu Simcere Pharmaceutical R&D Co. Ltd., priority 2006, dated 2011).

Columns and labels:
Type in all cases: cell-based
[1] = tested on: Human Gastric Cancer Cell Line (BGC); experiment: Tumor cell proliferation assay (MTT), BGC; settings: for inhibition at 10 µM: concentration of 10^−5 mol/L, preliminary screening, 72 hours, read-out: Inhibition rate % BGC; for IC50: secondary screening, 48 hours
From the text: (§1) The assay used generally is the blue tetrazolium bromide (MTT) method. […] The amount of formazan can be detected by the microplate reader through the absorption value at 570 nm. The amount of formazan product generated is proportional to the number of living cells in the sample, so the OD value may reflect the number of living cells and the ability of a test drug to inhibit or kill cells. The MTT assay may be used in determining the ability of different compounds of the present invention to inhibit one or more cancer cells proliferation. Similar assays can be designed along the same lines for any cancer cell using techniques well known in the art.
(§2) The assay used generally is the blue tetrazolium bromide (MTT) method. […] Intracellular purple formazan salt crystals can be solved in DMSO and the absorption value at 570 nm is detected by the microplate reader, then the number of living cells can be detected indirectly. So MTT assay may be used to determine the ability of a compound of the present invention to inhibit cell proliferation. Similar assays can be designed along the same lines for any cancer cell using techniques well known in the art.
2.2.1 Human Gastric Cancer Cell Line (BGC)
(§3) The cells of the 2.2.1, 2.2.2, 2.2.3, 2.2.4, 2.2.5 cultured with RPMI 1640 containing 12% calf serum in the condition of 37° C., 5% CO2.
(§4) 2.3.1 Cell seeding: Trypsinize the cell by 0.05% trypsin-EDTA and add RPMI 1640 medium (DMEM or 5A) containing 12% calf serum. Count the number, then dilute to 1.67×10^4/ml. Add 180 ul/well to the 96 well plate (3000 cells/well).
(§5) 2.3.2 Culture: cells are incubated for 24 hours at 37° C. under 5% CO2.
(§6) 2.3.3 Preliminary screening: The compounds are firstly diluted to 0.1 mol/L with DMSO, and then diluted to three concentrations of 10^−5 mol/L, 10^−6 mol/L and 10^−7 mol/L. Add 20 ul test compounds to the 96 well plate and incubate for 72 hours. Each group has three parallel wells and all experiments repeat three times. Each inhibition ratio is calculated, then an average value of three times is taken as the measured value. 2.3.4 Staining 2.3.4.1 Attached cell: add 20 ul/well MTT to the 96-well plates; incubate for 4 hours in the incubator. Pour out the culture medium in the well and add 100 ul/well DMSO. Shake the plate for 5 min. 2.3.4.2 Suspension cell: add 20 ul/well MTT to the 96-well plates; incubate for 4 hours in the incubator. Add 50 ul/well 20% SDS and incubate for overnight in the incubator. 2.3.5 Reading the plates: read the absorbance A570-A630 with the Infinite M200 microtiter plate reader. Calculate the inhibition ratio of the test compounds. 2.3.6 Secondary screening: the compounds whose inhibition ratio is greater than 50% at the concentrations of 10^−5 mol/L in the preliminary screening will be picked out for Secondary screening. Dilute these compounds to ten concentrations: 10^−5 mol/L, 0.5×10^−5 mol/L, 10^−6 mol/L, 0.8×10^−6 mol/L, 0.6×10^−6 mol/L, 0.4×10^−6 mol/L, 0.2×10^−6 mol/L, 10^−7 mol/L, 0.8×10^−7 mol/L and 0.4×10^−7 mol/L. Add 20 ul test compound solution to the 96 well plate and incubate for 48 hours. Each group has three parallel wells and all experiments repeat for three times. Read the plates and calculate the inhibition ratio according to the preliminary screening method. 2.3.7 Calculate the Inhibition Ratio of Cell Proliferation and the IC50
(§7) According to the inhibition ratio of cell proliferation at the different concentrations of the compound, inhibition ratio of 50% of the test compound is calculated through the logarithm of the concentration of the compound with the Logit [I] linear regression, and an average value of three times is taken as the measured value of a sample.

[2] = tested on: Human Pancreatic Carcinoma Cells (PANC-1); experiment: Tumor cell proliferation assay (MTT), PANC-1; settings: for inhibition at 10 µM: concentration of 10^−5 mol/L, preliminary screening, 72 hours, read-out: Inhibition rate % PANC-1; for IC50: secondary screening, 48 hours
From the text: as §1, §2
2.2.4 Human Pancreatic Carcinoma Cells (PANC-1)
as §3, §4, §5, §6, §7

[3] = tested on: Human Pancreatic Carcinoma Cell Line (BXPC-3); experiment: Tumor cell proliferation assay (MTT), BXPC-3; settings: for inhibition at 10 µM: concentration of 10^−5 mol/L, preliminary screening, 72 hours, read-out: Inhibition rate % BXPC-3; for IC50: secondary screening, 48 hours
From the text: as §1, §2
2.2.6 Human Pancreatic Carcinoma Cell Line (BXPC-3);
(§8) The cells of 2.2.6, 2.2.7 cultured in RPMI 1640 medium containing 12% fetal bovine serum in the condition of 37° C., 5% CO2.
as §4, §5
as §6, with “2.3.6 Secondary screening: the compounds whose inhibition ratio is greater than 50% at the concentrations of 10^−5 mol/L in the preliminary screening will be picked out for Secondary screening.” left out
as §7

[4] = tested on: Human Colon Cancer Cell Line (CACO-2); experiment: Tumor cell proliferation assay (MTT), CACO-2; settings: concentration of 10^−5 mol/L, preliminary screening, 72 hours, read-out: Inhibition rate % CACO-2
From the text: as §1, §2
2.2.10 Human Colon Cancer Cell Line (CACO-2)
The cell of 2.2.10 cultured in DMEM/High glucose medium containing 12% fetal bovine serum in the condition of 37° C., 5% CO2.
as §4, §5, §6, §7

[5] = tested on: Human Non-Small Cell Lung Cancer Cell Line (A549); experiment: Tumor cell proliferation assay (MTT), A549; settings: for inhibition at 10 µM: concentration of 10^−5 mol/L, preliminary screening, 72 hours, read-out: Inhibition rate % A549; for IC50: secondary screening, 48 hours
From the text: as §1, §2
2.2.2 Human Non-Small Cell Lung Cancer Cell Line (A549)
as §3, §4, §5, §6, §7

[6] = tested on: Human Bladder Cancer Cell Line (T24); experiment: Tumor cell proliferation assay (MTT), T24; settings: for inhibition at 10 µM: concentration of 10^−5 mol/L, preliminary screening, 72 hours, read-out: Inhibition rate % T24; for IC50: secondary screening, 48 hours
From the text: as §1, §2
2.2.7 Human Bladder Cancer Cell Line (T24);
as §8, §4, §5, §6, §7

[7] = tested on: Human Colon Cancer Cell Line (HT-29); experiment: Tumor cell proliferation assay (MTT), HT29; settings: for inhibition at 10 µM: concentration of 10^−5 mol/L, preliminary screening, 72 hours, read-out: Inhibition rate % HT29; for IC50: secondary screening, 48 hours
From the text: as §1, §2
2.2.11 Human Colon Cancer Cell Line (HT-29);
(§9) The cells of 2.2.11, 2.2.12, 2.2.13 were cultured in MC COYS 5-A medium containing 12% fetal bovine serum in the condition of 37° C., 5% CO2.
as §4, §5
as §6, with “2.3.6 Secondary screening: the compounds whose inhibition ratio is greater than 50% at the concentrations of 10^−5 mol/L in the preliminary screening will be picked out for Secondary screening.” left out
as §7

[8] = tested on: Human Hepatocellular Carcinoma Cell Line (HEPG2); experiment: Tumor cell proliferation assay (MTT), HEPG2; settings: for inhibition at 10 µM: concentration of 10^−5 mol/L, preliminary screening, 72 hours, read-out: Inhibition rate % HEPG2; for IC50: secondary screening, 48 hours
From the text: as §1, §2
2.2.8 Human Hepatocellular Carcinoma Cell Line (HEPG2);
The cells of 2.2.8, 2.2.9 cultured in DMEM/High glucose medium containing 12% calf serum in the condition of 37° C., 5% CO2.
as §4, §5, §6, §7

[9] = tested on: Human Leukemia Line (K562); experiment: Tumor cell proliferation assay (MTT), K562; settings: concentration of 10^−5 mol/L, preliminary screening, 72 hours, read-out: Inhibition rate % K562
From the text: as §1, §2
2.2.3 Human Leukemia Line (K562)
as §3, §4, §5, §6, §7

[10] = tested on: Human Ovarian Cancer Cell Line (SK-OV-3); experiment: Tumor cell proliferation assay (MTT), SK-OV-3; settings: for inhibition at 10 µM: concentration of 10^−5 mol/L, preliminary screening, 72 hours, read-out: Inhibition rate % SK-OV-3; for IC50: secondary screening, 48 hours
From the text: as §1, §2
2.2.13 Human Ovarian Cancer Cell Line (SK-OV-3).
as §9, §4, §5, §6, §7

[11] = tested on: Human Small Cell Lung Cancer Cell Line (NCI-H446); experiment: Tumor cell proliferation assay (MTT), NCI-H446; settings: for inhibition at 10 µM: concentration of 10^−5 mol/L, preliminary screening, 72 hours, read-out: Inhibition rate % NCI-H446; for IC50: secondary screening, 48 hours
From the text: as §1, §2
2.2.5 Human Small Cell Lung Cancer Cell Line (NCI-H446)
as §3, §4, §5, §6, §7

[12] = tested on: Human Colon Cancer Cell Line (HCT 116); experiment: Tumor cell proliferation assay (MTT), HCT116; settings: concentration of 10^−5 mol/L, preliminary screening, 72 hours, read-out: Inhibition rate % HCT116
From the text: as §1, §2
2.2.12 Human Colon Cancer Cell Line (HCT 116);
as §9, §4, §5, §6, §7

IC50 [1] [µM]	IC50 [2] [µM]	IC50 [10] [µM]	IC50 [3] [µM]	IC50 [5] [µM]	IC50 [6] [µM]	IC50 [7] [µM]	IC50 [8] [µM]	IC50 [11] [µM]	SMILES	inhibition at 10 µM [1] [%]	inhibition at 10 µM [2] [%]	inhibition at 10 µM [3] [%]	inhibition at 10 µM [4] [%]	inhibition at 10 µM [5] [%]	inhibition at 10 µM [6] [%]	inhibition at 10 µM [7] [%]	inhibition at 10 µM [8] [%]	inhibition at 10 µM [10] [%]	inhibition at 10 µM [11] [%]	further results
									Cc1[nH]c2c(c1C(=O)N1CCOCC1)CCC/C2=C1/C(=O)Nc2ccc(F)cc21 [I-10, 2-methyl-3-(morpholine-4-carbonyl)-7-[1,2-dihydro-5-fluoro-2-oxo-3H-indol-(Z)-3-ylidene]-4,5,6,7-tetrahydro-1H-indole]	15.2	11.7	51.7	0	7.64	27.5	30.9	43.5			
									CCOC(=O)c1c(C)[nH]c2c1CCC/C2=C1/C(=O)Nc2ccc(F)cc21 [I-1, ethyl 2-methyl-7-[1,2-dihydro-5-fluoro-2-oxo-3H-indol-(Z)-3-ylidene]-4,5,6,7-tetrahydro-1H-indole-3-carboxylate]											inhibition at 10 µM [9]: 28.6%
1.72	1.67	2.23	1.15	2.38	2.73	3.06	2.8	1.5	CCN(CC)CC(O)CNC(=O)c1c(C)[nH]c2c1CCC/C2=C1/C(=O)Nc2ccc(Cl)cc21 (centres unmarked) [I-65, N-(3-(diethylamino)-2-hydroxypropyl)-2-methyl-7-[1,2-dihydro-5-chloro-2-oxo-3H-indol-(Z)-3-ylidene]-4,5,6,7-tetrahydro-1H-indole-3-carboxamide]	91.1	98.1	99.2		85	97.9	98.3	100	95.7	99	
									Cc1[nH]c2c(c1C(=O)N1CCN(C)CC1)CCC/C2=C1/C(=O)Nc2ccccc21 [I-13, 2-methyl-3-(4-methylpiperazine-1-carbonyl)-7-[1,2-dihydro-2-oxo-3H-indol-(Z)-3-ylidene]-4,5,6,7-tetrahydro-1H-indole]	11.1	0	42.4	9.79	3.82	9.04	63.2	46			
									Cc1[nH]c2c(c1C(=O)N1CCOCC1)CCC/C2=C1/C(=O)Nc2ccccc21 [I-12, 2-methyl-3-(morpholine-4-carbonyl)-7-[1,2-dihydro-2-oxo-3H-indol-(Z)-3-ylidene]-4,5,6,7-tetrahydro-1H-indole]	31.9	23.3	29.5	11.7	1.1	14.6	78.4	12.8			inhibition at 10 µM [12]: 36.5%
11.1	3.58	5.69	4.47	14.5	3.99	5.17	3.59	9.25	Cc1[nH]c2c(c1C(=O)NCC(O)CN1CCCCC1)CCC/C2=C1/C(=O)Nc2ccc(Cl)cc21 (centres unmarked) [I-75, N-(2-hydroxy-3-(piperidin-1-yl)propyl)-2-methyl-7-[1,2-dihydro-5-chloro-2-oxo-3H-indol-(Z)-3-ylidene]-4,5,6,7-tetrahydro-1H-indole-3-carboxamide]	45.4	53.6	73.1		40.1	99.9	67.3	99	49.2	44.1	
